Test systems include MDA-MB-231; HT-29; KM12; Malme-3M; SF-295; HL-60; BT-549; NCI-H23; CCRF-CEM; IGROV-1; ACHN; LOX IMVI; NCI-H226; M14; DU-145; MCF7; SF-268; SW-620; SK-MEL-28; PC-3.
Common to all, as to assay: DTP human tumour cell line panel, 48 h

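Following 48 hours of exposure in 96-well plates, responses at five concentrations were used to interpolate endpoints linearly. At the GI50, growth is halved.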 Active and inactive are the calls of the source. Cut-off read from the data, not from the text of the source: active = GI50 up to about 1.1 µM and inactive = higher.

Regarding `O=[N+]([O-])c1ccc2nc(=S)[nH]n2c1`, the GI50 in the assay with MDA-MB-231, in the assay on HT-29, in the assay with KM12, in the assay with Malme-3M, with SF-295 and in the assay with HL-60 was > 100 µM (inactive) throughout. Besides, the GI50 in the assay with BT-549, in the assay on NCI-H23, with CCRF-CEM, with IGROV-1, with ACHN and with LOX IMVI was > 100 µM (inactive) throughout. The GI50 in the assay with NCI-H226, with M14, in the assay with DU-145, in the assay on MCF7, in the assay on SF-268 and in the assay on SW-620 was > 100 µM (inactive) each time.

Turning to `O=C1C(Cl)=C(N[C@@H](Cc2ccccc2)C(=O)OCc2ccccc2)C(=O)c2c(O)ccc(O)c21`, the GI50 (in general, the concentration at which growth is held to half of that of the control) in the assay with MDA-MB-231 was 2.55 µM (inactive); in the assay with HT-29, 4 µM (inactive); with KM12 it was 4.45 µM (inactive); with Malme-3M, 5.35 µM (inactive); with SF-295 it was 5.66 µM (inactive); in the assay on HL-60, 2.07 µM (inactive). Further, the GI50 in the assay on BT-549 was > 10 µM (inactive); in the assay on NCI-H23, 4.42 µM (inactive); with CCRF-CEM, 0.485 µM (active); in the assay with IGROV-1 it was 4.08 µM (inactive); in the assay on ACHN, 4.05 µM (inactive); with LOX IMVI, 2.99 µM (inactive). The GI50 was 5.3 µM (inactive) in the assay with NCI-H226; 6.34 µM (inactive) in the assay with SK-MEL-28; 3.8 µM (inactive) in the assay with M14; 3.72 µM (inactive) in the assay with PC-3; 4.45 µM (inactive) in the assay with DU-145; 2.91 µM (inactive) in the assay on SF-268. Also, in the assay with SW-620, the GI50 is 5.65 µM (inactive).

As for `COC(=O)c1sc2c(=O)c(C(=O)OC)c(C(=O)OC)sc2c(=O)c1C(=O)OC`, the GI50 in the assay on MDA-MB-231 was > 100 µM (inactive); in the assay with HT-29, > 100 µM (inactive); with KM12, > 100 µM (inactive); with Malme-3M, 49 µM (inactive); in the assay with SF-295 it was > 100 µM (inactive); in the assay on BT-549, > 100 µM (inactive). The GI50 in the assay with NCI-H23 is > 100 µM (inactive); in the assay with IGROV-1 it was > 67.8 µM (inactive); in the assay on ACHN, > 100 µM (inactive); in the assay with LOX IMVI, 73.3 µM (inactive); with NCI-H226 it was > 100 µM (inactive); with SK-MEL-28, > 100 µM (inactive). Besides, the GI50 with M14 was > 100 µM (inactive); with PC-3, > 100 µM (inactive); in the assay with DU-145, > 100 µM (inactive); with MCF7 it was > 100 µM (inactive); in the assay with SF-268 it was > 62.7 µM (inactive); in the assay on SW-620, > 100 µM (inactive).

In the case of `Cc1cn(CC2=NCCCN2)c(=O)[nH]c1=O`, the GI50 with MDA-MB-231, in the assay on HT-29, with Malme-3M, in the assay on SF-295, with BT-549 and with NCI-H23 was > 100 µM (inactive) each time. Also, the GI50 with CCRF-CEM, in the assay on IGROV-1, in the assay on ACHN, in the assay on LOX IMVI, in the assay with NCI-H226 and in the assay with SK-MEL-28 was > 100 µM (inactive) throughout. The GI50 in the assay with M14, in the assay on PC-3, with DU-145, with MCF7, in the assay with SF-268 and in the assay with SW-620 was > 100 µM (inactive) in each case.

Take `COc1cc(OC)c(C/C=C/c2ccccc2)cc1O`: the GI50 is 17.9 µM (inactive) in the assay on MDA-MB-231; 17.7 µM (inactive) in the assay on HT-29; 17.7 µM (inactive) in the assay with KM12; 16.2 µM (inactive) in the assay on Malme-3M; 19.3 µM (inactive) in the assay on HL-60; 16.1 µM (inactive) with BT-549. In addition, the GI50 with NCI-H23 was 17.4 µM (inactive); with CCRF-CEM it was 22.1 µM (inactive); in the assay with IGROV-1 it was 16.3 µM (inactive); in the assay on ACHN it was 25.7 µM (inactive); in the assay on LOX IMVI, 16 µM (inactive); in the assay on NCI-H226 it was 17.9 µM (inactive). In addition, the GI50 in the assay with SK-MEL-28 was 16.6 µM (inactive); in the assay with M14, 19 µM (inactive); with PC-3, 17.1 µM (inactive); in the assay with DU-145, 17.1 µM (inactive); in the assay on SF-268 it was 16.7 µM (inactive); with SW-620, 18.9 µM (inactive).

Regarding `S=C(Nc1ccccc1)N(Cc1ccccc1)c1ccccc1`, the GI50 was 45.6 µM (inactive) in the assay with MDA-MB-231; 22.5 µM (inactive) with HT-29; 21.2 µM (inactive) in the assay with KM12; 11.2 µM (inactive) with Malme-3M; 34.3 µM (inactive) with SF-295; 27.8 µM (inactive) in the assay with HL-60. Further, the GI50 was 0.34 µM (active) in the assay on BT-549; > 100 µM (inactive) with NCI-H23; 28.4 µM (inactive) with CCRF-CEM; 44.4 µM (inactive) in the assay with IGROV-1; 35 µM (inactive) with ACHN; 33 µM (inactive) in the assay on LOX IMVI. Moreover, the GI50 in the assay on NCI-H226 is 35.7 µM (inactive); with SK-MEL-28, 17.4 µM (inactive); in the assay with M14 it was 40.1 µM (inactive); in the assay with DU-145, 6.75 µM (inactive); in the assay with MCF7, 33.7 µM (inactive); with SF-268, 34.8 µM (inactive). Further, the GI50 in the assay with SW-620 is 13.7 µM (inactive).

On to `COc1ccc(-n2nnc3c(C#N)c(C)c(-c4ccccc4)n3c2=O)cc1`, for which the GI50 with MDA-MB-231 was 10.3 µM (inactive); with HT-29, 4.42 µM (inactive); in the assay on KM12 it was 2.71 µM (inactive); in the assay with Malme-3M it was 3.95 µM (inactive); with SF-295, 2.24 µM (inactive); in the assay on BT-549 it was 5.92 µM (inactive). In addition, the GI50 with NCI-H23 is 3.34 µM (inactive); in the assay on CCRF-CEM, 0.38 µM (active); in the assay with IGROV-1, 2.22 µM (inactive); in the assay on ACHN, 7.38 µM (inactive); in the assay on LOX IMVI, 3.31 µM (inactive); in the assay on NCI-H226 it was 2.3 µM (inactive). Also, the GI50 in the assay on SK-MEL-28 was 2.4 µM (inactive); in the assay with M14, 1.4 µM (inactive); in the assay on PC-3, 1.82 µM (inactive); in the assay with DU-145, 1.62 µM (inactive); in the assay with MCF7, 3.8 µM (inactive); in the assay with SF-268, 5.19 µM (inactive).

For `CCOC(=O)CSC1NC(C(=O)OC)CC1OC` (configuration not stated), the GI50 with MDA-MB-231, in the assay with HT-29, in the assay with KM12, in the assay on Malme-3M, in the assay on SF-295 and with BT-549 was > 100 µM (inactive) in each case. Besides, the GI50 was > 100 µM (inactive) with NCI-H23; 75 µM (inactive) with CCRF-CEM; > 100 µM (inactive) with IGROV-1; > 100 µM (inactive) with ACHN; > 100 µM (inactive) with SK-MEL-28; > 100 µM (inactive) in the assay on M14. Moreover, the GI50 in the assay with PC-3, in the assay with DU-145, in the assay with MCF7, in the assay on SF-268 and in the assay with SW-620 was > 100 µM (inactive) each time.

As to `CCOP(=O)(OCC)/C(C#N)=C/c1ccc(-c2cc(C(F)(F)F)cc(C(F)(F)F)c2)o1`, the GI50 is 13.7 µM (inactive) in the assay on MDA-MB-231; 6.55 µM (inactive) with HT-29; 1.82 µM (inactive) in the assay on SF-295; 3.4 µM (inactive) in the assay with HL-60; 25.7 µM (inactive) in the assay on BT-549; 13 µM (inactive) with NCI-H23. The GI50 was 9.75 µM (inactive) in the assay on CCRF-CEM; 12.7 µM (inactive) in the assay with ACHN; 3.34 µM (inactive) in the assay on LOX IMVI; 14.8 µM (inactive) in the assay with NCI-H226; 16.9 µM (inactive) with SK-MEL-28; 10.2 µM (inactive) in the assay on M14. Further, the GI50 was 11.7 µM (inactive) in the assay on PC-3; 14.6 µM (inactive) in the assay with DU-145; 6.3 µM (inactive) in the assay with MCF7; 15.2 µM (inactive) in the assay with SF-268; 14.9 µM (inactive) in the assay on SW-620.

For the molecule `O=C(NCCCCNCCCNC(=O)c1ccccc1)c1ccccc1`, the GI50 in the assay with MDA-MB-231, in the assay with HT-29, in the assay on KM12, with SF-295, with HL-60 and in the assay with BT-549 was > 100 µM (inactive) throughout. Besides, the GI50 in the assay on NCI-H23, with CCRF-CEM, in the assay on IGROV-1, in the assay on ACHN, in the assay with NCI-H226 and in the assay with SK-MEL-28 was > 100 µM (inactive) each time. Also, the GI50 in the assay on M14, with PC-3, in the assay with DU-145, in the assay with MCF7, in the assay on SF-268 and in the assay with SW-620 was > 100 µM (inactive) throughout.

Consider `Clc1ccc(COC(Cn2ccnc2)c2ccc(Cl)cc2Cl)c(Cl)c1` (configuration not stated) [MICONAZOLE], for which the GI50 with MDA-MB-231 was 12.6 µM (inactive); in the assay with KM12, 11.8 µM (inactive); in the assay on Malme-3M, 14.9 µM (inactive); with SF-295, 11.2 µM (inactive); with HL-60, 3.78 µM (inactive); in the assay with BT-549, 15 µM (inactive). The GI50 was 11 µM (inactive) in the assay on NCI-H23; 8.09 µM (inactive) in the assay on CCRF-CEM; 15 µM (inactive) in the assay on ACHN; 12.7 µM (inactive) with LOX IMVI; 17.1 µM (inactive) in the assay on SK-MEL-28; 12.6 µM (inactive) in the assay with M14. Moreover, the GI50 is 7.08 µM (inactive) in the assay on PC-3; 15.7 µM (inactive) in the assay on DU-145; 10.9 µM (inactive) in the assay on MCF7; 11.2 µM (inactive) in the assay on SF-268; 12.1 µM (inactive) in the assay on SW-620.

Source of the values: ChEMBL document CHEMBL1201862, “PubChem BioAssay data set” (2004).
